Data: patent publication US8476253B2, “Amide derivative” (Daiichi Sankyo Company, Limited, priority 2009, dated 2013)
Where a name gives a salt, the structure may show the parent alone. Read-outs that look alike come from different tables or passages of the source.

Columns and labels:
muscarine M3 receptor = test: Effect of suppressing methacholine-induced airway contraction (in vivo, intratracheal administration); parameters: species or system guinea pig; settings: guinea pigs, intratracheal administration 60 minutes before 30 μg/kg i.v. methacholine; AUC of increase in airway pressure over 10 minutes
Procedure: Using healthy guinea pigs (body weight, 350 to 550 g; Hartley male guinea pigs), the effect of suppressing airway contraction induced by methacholine, which is a muscarine receptor agonist, was examined by a modified method of Konzett-Roessler (Naunyn-Schmiedebergs Arch. Exp. Pathol. Pharmakol. 195, 71 [1940]) using airway pressure as an indicator.
A tracheal cannula and a venous cannula were attached to a guinea pig anesthetized with pentobarbital (50 mg/mL of solution, 0.40 to 0.50 mL/body, subcutaneous administration). An arterial cannula filled with heparin-containing physiological saline (100 U/mL) was further attached, and blood pressure and heart rate were monitored via an amplifier and an instantaneous heart rate meter. Subsequently, gallamine (20 mg/body, intravenous administration) was administered to terminate spontaneous breathing, and then 10 mL/kg of positive pressure breathing (Ugo-Basile Biological Research Apparatus, Cat. No. 7025) was rapidly performed at 60 times/min. The airway pressure during artificial breathing was detected with a pressure transducer (TP-200T or TP-400T; Nihon Kohden Corporation) attached to a side branch of the tracheal cannula, amplified (AP-601G; Nihon Kohden Corporation), and recorded in a recorder. After the airway pressure, blood pressure, and heart rate were stabilized, 30 μg/kg of methacholine was intravenously administered from the venous cannula to induce airway contraction, and the airway pressure was measured for the following 10 minutes.
A test substance was dissolved in 5% glucose solution, and a 0.5 mL/kg solution was administered intratracheally with an intratracheal administration apparatus (model 1A-1B; Penn-Century, Inc.) 60 minutes before stimulation with methacholine.
The AUC of increase in the airway pressure over 10 minutes after administration of methacholine was measured as the intensity of methacholine-induced airway contraction and calculated as an ID50 value from the inhibition rate based on the value of the control group (a 5% glucose solution intratracheal administration group).

human NK2 receptor = molecular target: T1, human NK2 receptor (Homo sapiens, UniProt P21452); test: Test for binding to human NK2 receptor
T1 construct: expressed in transfected cells; host or cells: COS cells
T1 sequence (P21452 1-398): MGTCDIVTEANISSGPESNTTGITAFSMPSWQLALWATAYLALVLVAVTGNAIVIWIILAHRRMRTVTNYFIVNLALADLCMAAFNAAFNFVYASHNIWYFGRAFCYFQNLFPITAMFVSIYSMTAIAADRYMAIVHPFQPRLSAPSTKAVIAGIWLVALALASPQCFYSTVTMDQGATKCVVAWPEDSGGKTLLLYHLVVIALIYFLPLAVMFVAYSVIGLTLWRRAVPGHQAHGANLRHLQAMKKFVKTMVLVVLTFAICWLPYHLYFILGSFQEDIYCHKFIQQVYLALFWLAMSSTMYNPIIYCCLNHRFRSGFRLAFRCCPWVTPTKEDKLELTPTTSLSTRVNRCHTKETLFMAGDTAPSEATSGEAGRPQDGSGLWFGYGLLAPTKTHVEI
Procedure: A solution of cryopreserved COS cells expressing human NK2 receptor was diluted with a buffer (50 mM tris-hydrochloride containing 0.04% of bovine serum albumin [BSA], pH 7.4) to obtain a concentration of 5.0×10^5 cells/mL and used as a crude membrane sample.
[^3H]SR 48968 (GE Healthcare Japan Corporation) was diluted with a mixture of 50 mM of tris-hydrochloride (pH 7.4), 6 mM of manganese chloride tetrahydrate, 800 μg/mL of BSA, 8 μg/mL of chymostatin, 8 μg/mL of leupeptin, 80 μg/mL of bacitracin, and 20 μg/mL of phosphoramidon. […] After the reaction, the membrane components were collected on a GF/B glass fiber filter paper (Whatman; Biomedical Research and Development Laboratories, Inc.) with an automated filtration system (Brandel; Biomedical Research and Development Laboratories, Inc.). The glass fiber filter paper was pretreated with a 0.1% polyethylenimine solution for 4 hours or longer to minimize non-specific binding. The filter collecting the membrane components was transferred to a small-size plastic vial containing 3 mL of Pico-Fluor, and the radioactivity was measured with a liquid scintillation counter (Tri-Carb 2900TR or 2300TR; Perkin Elmer).
The effect of binding to the NK2 receptor was calculated as the affinity (Ki) of the test substance for the NK2 receptor from a 50% binding dose (IC50) and the affinity (Kd) of [^3H]SR 48968 for the NK2 receptor.

substance P receptor = molecular target: T2, substance P receptor (Cavia porcellus, UniProt P30547); test: Test for binding to guinea-pig substance P receptor (crude lung membrane sample); settings: crude guinea-pig lung membrane sample, [3H]substance P; Ki from IC50 and Kd; read-out: Ki
T2 construct: A preparation of a crude lung membrane sample was prepared; from tissue; host or cells: guinea-pig lung (crude membrane sample)
T2 sequence (P30547 whole entry): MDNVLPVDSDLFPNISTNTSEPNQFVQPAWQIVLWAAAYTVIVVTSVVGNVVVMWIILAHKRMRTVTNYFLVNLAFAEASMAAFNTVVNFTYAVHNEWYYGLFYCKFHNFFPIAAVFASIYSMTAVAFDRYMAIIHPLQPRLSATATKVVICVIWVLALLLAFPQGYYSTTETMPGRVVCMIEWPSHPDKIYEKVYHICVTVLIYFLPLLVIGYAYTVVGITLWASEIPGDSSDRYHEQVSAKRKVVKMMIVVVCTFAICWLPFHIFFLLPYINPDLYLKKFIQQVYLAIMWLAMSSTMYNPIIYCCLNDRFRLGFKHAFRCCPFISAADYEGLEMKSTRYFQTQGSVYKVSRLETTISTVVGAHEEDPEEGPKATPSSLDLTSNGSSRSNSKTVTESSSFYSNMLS
Procedure: A preparation of a crude lung membrane sample was prepared, and a test for binding of a test substance to the sample was performed according to the method described in EP0336230A2.
The binding effect of the test substance to a substance P receptor was calculated as an affinity (Ki) of the test substance for the substance P receptor from a 50% binding concentration (IC50) and an affinity (Kd) of [^3H]substance P for the substance P receptor.

human M3 receptor = molecular target: T3, human M3 receptor (Homo sapiens, UniProt P20309); test: Test for binding to human M3 receptor
T3 construct: expressed in transfected cells; host or cells: CHO cells
T3 sequence (P20309 whole entry): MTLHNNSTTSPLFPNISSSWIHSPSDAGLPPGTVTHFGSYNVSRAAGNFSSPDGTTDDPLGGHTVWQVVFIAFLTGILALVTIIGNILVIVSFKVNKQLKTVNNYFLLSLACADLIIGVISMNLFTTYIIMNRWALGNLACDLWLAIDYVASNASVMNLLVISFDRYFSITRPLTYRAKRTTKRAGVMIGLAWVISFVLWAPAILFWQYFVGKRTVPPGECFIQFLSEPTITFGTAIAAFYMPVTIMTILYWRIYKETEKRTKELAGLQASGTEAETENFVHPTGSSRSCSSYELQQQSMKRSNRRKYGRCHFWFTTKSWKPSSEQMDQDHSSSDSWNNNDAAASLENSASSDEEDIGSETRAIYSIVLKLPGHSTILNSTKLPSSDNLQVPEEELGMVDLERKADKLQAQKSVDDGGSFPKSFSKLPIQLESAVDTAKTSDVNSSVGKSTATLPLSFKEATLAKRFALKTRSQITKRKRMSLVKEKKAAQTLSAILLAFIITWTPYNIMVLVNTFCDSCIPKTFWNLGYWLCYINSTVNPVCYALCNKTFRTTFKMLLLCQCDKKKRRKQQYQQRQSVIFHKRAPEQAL
Procedure: A solution of cryopreserved CHO cells expressing human M3 receptor was diluted with a buffer (50 mM tris-hydrochloride containing 0.5 mM of EDTA, pH 7.4) to obtain 5.0×10^5 of cells/mL and used as a crude membrane sample.
[N-methyl-^3H]-(−)-Scopolamine methyl chloride (GE Healthcare Japan Corporation) was diluted with 50 mM of tris-hydrochloride containing 0.5 mM of EDTA (pH 7.4), a test substance and 250 μL of the crude membrane sample solution were added to 250 μL of the mixture, and the mixture was incubated at room temperature for 60 minutes. […] The glass fiber filter paper was pretreated with a 0.1% polyethylenimine solution for 4 hours or longer to minimize non-specific binding. The filter collecting membrane components was transferred to a small-size plastic vial containing 3 mL of Pico-Fluor, and the radioactivity was measured with a liquid scintillation counter (Tri-Carb 2900TR or 2300TR; Perkin Elmer).
The effect of binding to the M3 receptor was calculated as the affinity (Ki) of the test substance for the M3 receptor from a 50% binding dose (IC50) and the affinity (Kd) of [N-methyl-^3H]-(−)-Scopolamine methyl chloride for the M3 receptor.

[1] = COS cells expressing human NK2 receptor, [3H]SR 48968 1 nM, Ki from IC50 and Kd, read-out: Ki
[2] = CHO cells expressing human M3 receptor, [N-methyl-3H]-(-)-Scopolamine methyl chloride 0.5 nM, Ki from IC50 and Kd, read-out: Ki

Row | Structure (SMILES) | ID50 (muscarine M3 receptor) [mg/kg] | Ki (human NK2 receptor; [1]) [nM] | Ki (substance P receptor) [nM] | Ki (human M3 receptor; [2]) [nM] | Ki (human NK2 receptor) [nM] | Ki (human M3 receptor) [nM]
1 | CN(CCN1CCC(OC(=O)Nc2ccccc2-c2ccccc2)CC1)C(=O)CCCCCNc1ccc(C(=O)N(C)CCCN(C)C(=O)CO[C@H]2Cc3ccccc3C23CCN(CC[C@@]2(c4ccc(F)cc4)CN(C(=O)c4cc(C(F)(F)F)cc(C(F)(F)F)c4)CO2)CC3)s1 [Example 4, 1-(2-{[6-({5-[{3-[({[(2S)-1′-{2-[(5R)-3-[3,5-Bis(trifluoromethyl)benzoyl]-5-(4-fluorophenyl)-1,3-oxazolidin-5-yl]ethyl}-2,3-dihydrospiro[indene-1,4′-piperidin]-2-yl]oxy}acetyl)(methyl)amino]propyl}(methyl)carbamoyl]-2-thienyl}amino)hexanoyl](methyl)amino}ethyl)piperidin-4-yl biphenyl-2-ylcarbamate] | 0.0252 | 0.62 | 1.8 | 2.1 | – | –
2 | CN(CCCCCC(=O)N(C)CCN1CCC(OC(=O)Nc2ccccc2-c2ccccc2)CC1)Cc1ccc(C(=O)N(C)CCCN(C)C(=O)CO[C@H]2Cc3ccccc3C23CCN(CC[C@@]2(c4ccc(F)cc4)CN(C(=O)c4cc(C(F)(F)F)cc(C(F)(F)F)c4)CO2)CC3)nc1 [Example 5, 1-{2-[{6-[({6-[{3-[({[(2S)-1′-{2-[(5R)-3-[3,5-Bis(trifluoromethyl)benzoyl]-5-(4-fluorophenyl)-1,3-oxazolidin-5-yl]ethyl}-2,3-dihydrospiro[indene-1,4′-piperidin]-2-yl]oxy}acetyl)(methyl)amino]propyl}(methyl)carbamoyl]pyridin-3-yl}methyl)(methyl)amino]hexanoyl}(methyl)amino]ethyl}piperidin-4-yl biphenyl-2-ylcarbamate] | – | 0.48 | 1.5 | 0.69 | – | –
3 | CN(CCN1CCC(OC(=O)Nc2ccccc2-c2ccccc2)CC1)C(=O)CCCCCNCc1ccc(C(=O)N(C)CCCN(C)C(=O)CO[C@H]2Cc3ccccc3C23CCN(CC[C@@]2(c4ccc(F)cc4)CN(C(=O)c4cc(C(F)(F)F)cc(C(F)(F)F)c4)CO2)CC3)cc1 [Example 75, 1-(2-{[6-({4-[{3-[({[(2S)-1-{2-[(5R)-3-[3,5-Bis(trifluoromethyl)benzoyl]-5-(4-fluorophenyl)-1,3-oxazolidin-5-yl]ethyl}-2,3-dihydrospiro[indene-1,4′-piperidin]-2-yl]oxy}acetyl)(methyl)amino]propyl}(methyl)carbamoyl]benzyl}amino)hexanoyl](methyl)amino}ethyl)piperidin-4-yl biphenyl-2-ylcarbamate] | – | 0.25 | 1 | 0.52 | – | –
4 | Cc1nc(NCCCCCC(=O)N(C)CCN2CCC(OC(=O)Nc3ccccc3-c3ccccc3)CC2)sc1C(=O)N(C)CCN(C)C(=O)CO[C@H]1Cc2ccccc2C12CCN(CC[C@@]1(c3ccc(F)cc3)CN(C(=O)c3cc(C(F)(F)F)cc(C(F)(F)F)c3)CO1)CC2 [Example 107, 1-(2-{[6-({5-[{2-[({[(2S)-1′-{2-[(5R)-3-[3,5-Bis(trifluoromethyl)benzoyl]-5-(4-fluorophenyl)-1,3-oxazolidin-5-yl]ethyl}-2,3-dihydrospiro[indene-1,4′-piperidin]-2-yl]oxy}acetyl)(methyl)amino]ethyl}(methyl)carbamoyl]-4-methyl-1,3-thiazol-2-yl}amino)hexanoyl](methyl)amino}ethyl)piperidin-4-yl biphenyl-2-ylcarbamate trihydrochloride] | – | – | 1.2 | – | 0.59 | 1.4
5 | CN(CCCCCC(=O)N(C)CCN1CCC(OC(=O)Nc2ccccc2-c2ccccc2)CC1)Cc1cccc(C(=O)N(C)CCCN(C)C(=O)CO[C@H]2Cc3ccccc3C23CCN(CC[C@@]2(c4ccc(F)cc4)CN(C(=O)c4cc(C(F)(F)F)cc(C(F)(F)F)c4)CO2)CC3)c1 [Example 41, 1-{2-[{6-[{3-[{3-[({[(2S)-1′-{2-[(5R)-3-[3,5-Bis(trifluoromethyl)benzoyl]-5-(4-fluorophenyl)-1,3-oxazolidin-5-yl]ethyl}-2,3-dihydrospiro[indene-1,4′-piperidin]-2-yl]oxy}acetyl)(methyl)amino]propyl}(methyl)carbamoyl]benzyl}(methyl)amino]hexanoyl}(methyl)amino]ethyl}piperidin-4-yl biphenyl-2-ylcarbamate trihydrochloride] | – | – | 0.96 | – | 0.26 | 1.4
6 | Cc1cc(NCCCCCC(=O)N(C)CCN2CCC(OC(=O)Nc3ccccc3-c3ccccc3)CC2)sc1C(=O)N(C)CCN(C)C(=O)CO[C@H]1Cc2ccccc2C12CCN(CC[C@@]1(c3ccc(F)cc3)CN(C(=O)c3cc(C(F)(F)F)cc(C(F)(F)F)c3)CO1)CC2 [Example 89, 1-(2-{[6-({5-[{2-[({[(2S)-1′-{2-[(5R)-3-[3,5-Bis(trifluoromethyl)benzoyl]-5-(4-fluorophenyl)-1,3-oxazolidin-5-yl]ethyl}-2,3-dihydrospiro[indene-1,4′-piperidin]-2-yl]oxy}acetyl)(methyl)amino]ethyl}(methyl)carbamoyl]-4-methyl-2-thienyl}amino)hexanoyl](methyl)amino}ethyl)piperidin-4-yl biphenyl-2-ylcarbamate] | – | 0.75 | 0.74 | 1.2 | – | –
